Tests used:
Plasma Kallikrein [1] = molecular target: T1, Plasma Kallikrein (Homo sapiens, UniProt P03952); test: Plasma kallikrein protease inhibition assay, purified enzyme; assay type: biochemical; set-up: NS0-derived Gly20-Ala638, with a C-terminal 60-His tag; 60-His (so in the source) (C); purchased R&D Systems 2497-SE; host or cells: Mouse myeloma cell line, NS0; conditions: 10 μM Z-FR-AMC substrate, 20-minute pre-incubation, pH 8.0/8.5, room temperature, read-out: Purified PKal IC50
Method: (§1) Plasma kallikrein protease inhibition assay. Two methods for determining the IC50 of a test compound against Plasma Kallikrein are provided.
In the first method was used a reaction buffer composed of 25 mM Tris-HCl (pH 8.0), 100 mM NaCl (pH 8.5), 0.01% Brij35, and 1% DMSO (final). The enzyme used was Plasma Kallikrein (R&D Systems Cat #2497-SE; Recombinant Human Plasma Kallikrein, expressed in Mouse myeloma cell line, NS0-derived Gly20-Ala638, with a C-terminal 60-His tag. MW=70 kDa).
The enzyme was activated by dilution to 200 μg/mL in activation buffer (100 mM Tris, 10 mM CaCl2, 150 mM NaCl, pH 7.5 (TCN), and then combined with an equal volume of 20 μg/mL thermolysin to form a reaction buffer. Each test compound was then dissolved in DMSO and delivered into the reaction buffer. The reaction was initiated by delivering a substrate solution containing 10 μM Z-FR-AMC (Enzo Cat #P-139; AMC: 7-Amino-4-methylcoumarin) into the reaction well after a 20-minute pre-incubation period.
Measurement was conducted with En Vision (PE) with excitation and emission wavelengths of 355 nm and 460 nm, respectively. […]. The enzyme activities were monitored every 5 minutes as a time-course measurement of the increase in signal from fluorescently labeled peptide substrate for 120 minutes at room temperature.
Data was analyzed by taking slope*(signal/time) of the linear portion of measurements. Slope was calculated using Excel, and curve fits were performed using Prism software.

Plasma Kallikrein [2] = molecular target: T1, Plasma Kallikrein; test: Plasma kallikrein activity in pooled human plasma; assay type: biochemical; set-up: Plasma Kallikrein activity was also measured in pooled human plasma; from tissue; host or cells: pooled human plasma; conditions: Z-FR-AMC substrate, activated with 10% Actin FS solution, 10 minutes, read-out: Pooled Human Plasma PKal IC50
Method: as §1
Second, Plasma Kallikrein activity was also measured in pooled human plasma. First, a 10% Actin FS solution was prepared in assay buffer. Each test compound was dissolved in DMSO and delivered to the reaction mixture along with Z-FR-AMC substrate and pooled human plasma. The multi-well reaction plate was incubated for five minutes at room temperature. To initiate the reaction, the 10% Actin FS solution was added to each well, and kinetic measurements were taken at Ex/Em at 355/460 nm. The fluorescence signal was recorded every 30 seconds for a total of 10 minutes.

T1 sequence (P03952 391-638 limits assumed): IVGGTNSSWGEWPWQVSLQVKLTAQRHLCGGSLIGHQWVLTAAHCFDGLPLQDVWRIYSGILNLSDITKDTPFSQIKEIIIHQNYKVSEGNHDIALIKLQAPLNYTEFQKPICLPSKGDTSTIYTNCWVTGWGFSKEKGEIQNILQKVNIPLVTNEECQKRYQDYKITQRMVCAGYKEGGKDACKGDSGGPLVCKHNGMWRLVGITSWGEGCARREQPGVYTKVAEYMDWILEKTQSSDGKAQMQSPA
T1 sequence (P03952 20-390 partner limits assumed): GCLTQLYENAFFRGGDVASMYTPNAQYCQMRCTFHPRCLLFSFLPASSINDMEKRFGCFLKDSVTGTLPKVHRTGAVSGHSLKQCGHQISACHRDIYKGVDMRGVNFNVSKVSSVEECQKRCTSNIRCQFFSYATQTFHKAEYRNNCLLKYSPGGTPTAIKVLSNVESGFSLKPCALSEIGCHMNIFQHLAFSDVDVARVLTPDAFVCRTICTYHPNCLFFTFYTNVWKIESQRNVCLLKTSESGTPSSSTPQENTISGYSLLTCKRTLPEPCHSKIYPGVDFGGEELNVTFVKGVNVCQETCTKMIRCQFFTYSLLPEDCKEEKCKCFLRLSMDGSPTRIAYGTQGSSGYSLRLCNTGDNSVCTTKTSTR

Structure (SMILES)	IC50 (Plasma Kallikrein [1]) [nM]	IC50 (Plasma Kallikrein [2]) [nM]
COCc1c(C(=O)NCc2ccc(C(=N)N)cc2)cnn1Cc1ccc(CC#N)cc1 [Example 85, N-(4-carbamimidoylbenzyl)-1-(4-(cyanomethyl)benzyl)-5-(methoxymethyl)-1H-pyrazole-4-carboxamide]	10 to 100	100 to 1000
COCCc1ccc(Cn2cc(C(=O)NCc3ccc(C(=N)N)c(F)c3)cn2)cc1 [Example 73, N-(4-carbamimidoyl-3-fluorobenzyl)-1-(4-(2-methoxyethyl)benzyl)-1H-pyrazole-4-carboxamide]	1 to 10	< 100
COCc1c(C(=O)NCc2ccc(C(=N)N)cc2)cnn1Cc1ccc(C(C)(C)C#N)cc1 [Example 82, N-(4-carbamimidoylbenzyl)-1-(4-(2-cyanopropan-2-yl)benzyl)-5-(methoxymethyl)-1H-pyrazole-4-carboxamide]	10 to 100	< 100
CC(C)(C#N)c1ccc(Cn2cc(C(=O)NCc3cc(F)c(C(=N)N)c(F)c3)cn2)cc1 [Example 44, N-(4-carbamimidoyl-3,5-difluorobenzyl)-1-(4-(2-cyanopropan-2-yl)benzyl)-1H-pyrazole-4-carboxamide]	> 100	> 1000
COCc1c(C(=O)NCc2ccc(C(=N)N)c(F)c2)cnn1Cc1ccc(CC#N)cc1 [Example 75, N-(4-carbamimidoyl-3-fluorobenzyl)-1-(4-(cyanomethyl)benzyl)-5-(methoxymethyl)-1H-pyrazole-4-carboxamide]	> 100	> 1000
N#CCc1ccc(Cn2cc(C(=O)NCc3ccc(C(=N)N)c(F)c3)cn2)cc1 [Example 72, N-(4-carbamimidoyl-3-fluorobenzyl)-1-(4-(cyanomethyl)benzyl)-1H-pyrazole-4-carboxamide]	10 to 100	100 to 1000
COCCc1cccc(Cn2cc(C(=O)NCc3ccc(C(=N)N)cc3)cn2)c1 [Example 69, N-(4-carbamimidoylbenzyl)-1-(3-(2-methoxyethyl)benzyl)-1H-pyrazole-4-carboxamide]	1 to 10	< 100
N#CCc1ccc(Cn2ncc(C(=O)NCc3ccc(C(=N)N)cc3)c2C2CC2)cc1 [Example 86, N-(4-carbamimidoylbenzyl)-1-(4-(cyanomethyl)benzyl)-5-cyclopropyl-1H-pyrazole-4-carboxamide]	10 to 100	100 to 1000
Cc1c(C(=O)NCc2ccc(C(=N)N)cc2)cnn1Cc1ccc(C(C)(C)C#N)cc1 [Example 81, N-(4-carbamimidoylbenzyl)-1-(4-(2-cyanopropan-2-yl)benzyl)-5-methyl-1H-pyrazole-4-carboxamide]	< 1	< 100
CCCc1c(C(=O)NCc2ccc(C(=N)N)cc2)ncn1Cc1ccc(C(C)(C)C#N)cc1 [Example 84, N-(4-carbamimidoylbenzyl)-1-(4-(2-cyanopropan-2-yl)benzyl)-5-propyl-1H-imidazole-4-carboxamide]	> 100	> 1000
CC(C#N)c1ccc(Cn2cc(C(=O)NCc3ccc(C(=N)N)cc3)cn2)cc1 (stereo not drawn) [Example 5, N-(4-carbamimidoylbenzyl)-1-(4-(1-cyanoethyl)benzyl)-1H-pyrazole-4-carboxamide]	1 to 10	–
N#CCc1ccc(Cc2cc(C(=O)NCc3ccc(C(=N)N)cc3)on2)cc1 [Example 10, N-(4-carbamimidoylbenzyl)-3-(4-(cyanomethyl)benzyl) isoxazole-5-carboxamide]	1 to 10	–
N#Cc1ccn(-c2ccc(Cn3cc(C(=O)NCc4ccc(C(=N)N)cc4)cn3)cc2)c1 [Example 25, N-(4-carbamimidoylbenzyl)-1-(4-(3-cyano-1H-pyrrol-1-yl)benzyl)-1H-pyrazole-4-carboxamide]	< 1	< 100
N#Cc1ccc(-c2ccc(Cn3cc(C(=O)NCc4ccc(C(=N)N)cc4)cn3)cc2)cc1 [Example 13, N-(4-carbamimidoylbenzyl)-1-((4′-cyano-[1,1′-biphenyl]-4-yl)methyl)-1H-pyrazole-4-carboxamide]	< 1	< 100
CC(C)(C#N)c1ccc(Cn2ncc(C(=O)NCc3ccc(C(=N)N)cc3)c2C2CC2)cc1 [Example 83, N-(4-carbamimidoylbenzyl)-1-(4-(2-cyanopropan-2-yl)benzyl)-5-cyclopropyl-1H-pyrazole-4-carboxamide]	10 to 100	100 to 1000
COCc1ccc(Cn2cc(C(=O)NCc3ccc(C(=N)N)cc3)cn2)cc1 [Example 71, N-(4-carbamimidoylbenzyl)-1-(4-(methoxymethyl)benzyl)-1H-pyrazole-4-carboxamide]	< 1	< 100
N=C(N)c1ccc(CNC(=O)c2cnn(Cc3ccc(CO)cc3)c2)cc1 [Example 2, N-(4-carbamimidoylbenzyl)-1-(4-(hydroxymethyl)benzyl)-1H-pyrazole-4-carboxamide]	1 to 10	< 100
CNC(=O)Cc1ccc(Cn2cc(C(=O)NCc3ccc(C(=N)N)c(F)c3)cn2)cc1 [Example 74, N-(4-carbamimidoyl-3-fluorobenzyl)-1-(4-(2-(methylamino)-2-oxoethyl)benzyl)-1H-pyrazole-4-carboxamide]	1 to 10	100 to 1000
N#Cc1ccc(Cc2ccc(Cn3cc(C(=O)NCc4ccc(C(=N)N)cc4)cn3)cc2)cc1 [Example 14, N-(4-carbamimidoylbenzyl)-1-(4-(4-cyanobenzyl)benzyl)-1H-pyrazole-4-carboxamide]	< 1	100 to 1000
N#CCc1ccccc1Cn1cc(C(=O)NCc2ccc(C(=N)N)cc2)cn1 [Example 70, N-(4-carbamimidoylbenzyl)-1-(2-(cyanomethyl)benzyl)-1H-pyrazole-4-carboxamide]	10 to 100	100 to 1000
N#CCc1ccc(Cc2cc(C(=O)NCc3ccc(C(=N)N)cc3)sn2)cc1 [Example 11]	1 to 10	–

Source: US20260327193A1, “INHIBITORS OF PLASMA KALLIKREIN” (Rezolute, Inc., priority 2022, published 2026)
